Measurements from the NIST ThermoML archive (doi:10.1021/je050402s).

Tests used:
[1] = 100.5 kPa, Liquid
[2] = xn = mol fraction of the nth substance listed; settings: 100.5 kPa, Liquid, x2 = 0

CC(=O)OCc1ccccc1 [benzyl ethanoate]
[1]
Settings | mass density [kg/m3]
288.15 K | 1060.11
298.15 K | 1050.75
308.15 K | 1041.39
318.15 K | 1032.03

[1], Capillary tube (Ostwald / Ubbelohde) method
Settings | viscosity [mPa·s]
288.15 K | 2.53
298.15 K | 2.056
308.15 K | 1.703
318.15 K | 1.432

CCC(=O)OCc1ccccc1 [benzyl propanoate]
[1]
Settings | mass density [kg/m3]
288.15 K | 1036.86
298.15 K | 1027.6
308.15 K | 1018.38
318.15 K | 1009.15

[1], Capillary tube (Ostwald / Ubbelohde) method
Settings | viscosity [mPa·s]
288.15 K | 2.55
298.15 K | 2.123
308.15 K | 1.787
318.15 K | 1.515

CCO [ethanol]
[1]
Settings | mass density [kg/m3]
288.15 K | 793.6
298.15 K | 785
308.15 K | 776.31
318.15 K | 767.44

[1], Capillary tube (Ostwald / Ubbelohde) method
Settings | viscosity [mPa·s]
288.15 K | 1.337
298.15 K | 1.105
308.15 K | 0.921
318.15 K | 0.771

CCO [ethanol] + CC(=O)OCc1ccccc1
[2], Capillary tube (Ostwald / Ubbelohde) method
Settings | viscosity [mPa·s]
288.15 K | 1.337
298.15 K | 1.105
308.15 K | 0.921
318.15 K | 0.771

[2]
Settings | mass density [kg/m3]
288.15 K | 793.6
298.15 K | 785
308.15 K | 776.31
318.15 K | 767.44

CCO [ethanol] + CCC(=O)OCc1ccccc1
[2], Capillary tube (Ostwald / Ubbelohde) method
Settings | viscosity [mPa·s]
288.15 K | 1.337
298.15 K | 1.105
308.15 K | 0.921
318.15 K | 0.771

[2]
Settings | mass density [kg/m3]
288.15 K | 793.6
298.15 K | 785
308.15 K | 776.31
318.15 K | 767.44

CCO [ethanol] + CCOC(=O)CC(C)=O
[2], Capillary tube (Ostwald / Ubbelohde) method
Settings | viscosity [mPa·s]
288.15 K | 1.337
298.15 K | 1.105
308.15 K | 0.921
318.15 K | 0.771

[2]
Settings | mass density [kg/m3]
288.15 K | 793.6
298.15 K | 785
308.15 K | 776.31
318.15 K | 767.44

CCO [ethanol] + CCOC(=O)CC(C)C
[2], Capillary tube (Ostwald / Ubbelohde) method
Settings | viscosity [mPa·s]
288.15 K | 1.337
298.15 K | 1.105
308.15 K | 0.921
318.15 K | 0.771

[2]
Settings | mass density [kg/m3]
288.15 K | 793.6
298.15 K | 785
308.15 K | 776.31
318.15 K | 767.44

CCO [ethanol] + CCOC(=O)c1ccccc1O
[2]
Settings | mass density [kg/m3] | viscosity [mPa·s]
288.15 K | 793.6 | 1.337
298.15 K | 785 | 1.105
308.15 K | 776.31 | 0.921
318.15 K | 767.44 | 0.771

CCO [ethanol] + COC(=O)c1ccccc1
[2], Capillary tube (Ostwald / Ubbelohde) method
Settings | viscosity [mPa·s]
288.15 K | 1.337
298.15 K | 1.105
308.15 K | 0.921
318.15 K | 0.771

[2]
Settings | mass density [kg/m3]
288.15 K | 793.6
298.15 K | 785
308.15 K | 776.31
318.15 K | 767.44

CCOC(=O)c1ccccc1O [ethyl 2-hydroxybenzoate]
[1]
Settings | mass density [kg/m3] | viscosity [mPa·s]
288.15 K | 1134.72 | 3.694
298.15 K | 1125 | 2.831
308.15 K | 1115.29 | 2.253
318.15 K | 1105.6 | 1.842

CCOC(=O)CC(C)C [ethyl 3-methylbutanoate]
[1]
Settings | mass density [kg/m3]
288.15 K | 869.66
298.15 K | 859.78
308.15 K | 849.83
318.15 K | 839.81

[1], Capillary tube (Ostwald / Ubbelohde) method
Settings | viscosity [mPa·s]
288.15 K | 0.853
298.15 K | 0.739
308.15 K | 0.642
318.15 K | 0.566

CCOC(=O)CC(C)=O [ethyl 3-oxobutanoate]
[1]
Settings | mass density [kg/m3]
288.15 K | 1033.92
298.15 K | 1023.45
308.15 K | 1013
318.15 K | 1002.54

[1], Capillary tube (Ostwald / Ubbelohde) method
Settings | viscosity [mPa·s]
288.15 K | 1.902
298.15 K | 1.581
308.15 K | 1.344
318.15 K | 1.144

COC(=O)c1ccccc1 [methyl benzoate]
[1]
Settings | mass density [kg/m3]
288.15 K | 1093.23
298.15 K | 1083.92
308.15 K | 1074.34
318.15 K | 1064.62

[1], Capillary tube (Ostwald / Ubbelohde) method
Settings | viscosity [mPa·s]
288.15 K | 2.297
298.15 K | 1.851
308.15 K | 1.531
318.15 K | 1.297
